Consider 39 molecules from patent US8044206B2, “Nitrogen—containing heterocyclic derivatives having 2,6-disubstituted styryl” (Astellas Pharma Inc., priority 2003, dated 2011).

Counter-ions that a name gives are not always drawn.

The subject of the first assay is sodium channel. The assay can be described thus: [14C] guanidine uptake induced by veratridine in rat cerebral cortex primary neurons (sodium channel inhibitory action). The settings on record: [14C] guanidine uptake induced by 100 μM veratridine, specific uptake = portion inhibited by 1 mM mexiletine, read-out: Na Channel Inhibition IC50. It is filed as cell-based. As for the experimental part: The [^14C] guanidine uptake experiment was performed by the method of Bonisch et al. (British Journal of Pharmacology 108, 436-442, 1993) with some modifications. The [^14C] guanidine was used as a sodium tracer, and the inhibitory activity on uptake of [^14C] guanidine induced by veratridine as a sodium channel activator into rat cerebral cortex primary neurons was measured.
Pregnant rats (Wistar, female, 19 days of gestation) were anesthetized with ether. The animals were bled to death by giving incision through the carotid artery. The fetuses were taken out of the pregnant rats and after ethanol sterilization, the cerebral cortex was removed from the fetuses. The cerebral cortex was digested with papain and dispersed in culture medium, followed by plating on a poly-L-lysine-coated 96-well white plate at a density of 2.5×10^5 cells/well. Incubation was performed in a CO2 incubator (37° C., 5% CO2) for 2 days.
After each well was washed once with an assay buffer (135 mM choline Cl, 5 mM KCl, 1 mM MgSO4, 5.5 mM glucose, 1 mg/mL BSA, 10 mM Hepes-Tris, pH 7.4), a fresh assay buffer was added to the well, followed by incubation at 25° C. for 10 minutes. Then, a reaction solution (a test compound, [^14C] guanidine and 100 μM, veratridine) was replaced for the buffer, followed by incubation at 25° C. for 15 minutes. The reaction was terminated by washing 3 times with a cold wash buffer (135 mM NaCl, 5 mM KCl, 1 mM MgSO4, 10 mM Hepes-Tris, pH 7.4). To each well, 17 μl of 0.1N NaOH was added. After agitation, 100 μl of scintillator was added to the well and further agitation was continued. The radioactivity was quantified by a liquid scintillation counter. In each experiment, the sodium channel-specific uptake of the whole uptake was designated as portion that was inhibited by 1 mM mexiletine. The action of the test compound on sodium channel is expressed as 50% inhibition concentration (IC50) based on the specific uptake.
On to `Cc1cccc(C)c1/C=C/c1ccncc1` [Example 25-2], for which the half-inhibitory concentration (IC50) worked out at 29 µM.
Still for that read-out and setting: the value for `CCc1cccc(CC)c1/C=C/C1CCNCC1` [Example 40] was 8.4 µM; that for `CCCCN(CCCC)C(=O)c1cc(C)c(/C=C/C2CCNCC2)c(C)c1` [Example 51] was 15 µM.
On the same count and under the same terms, the same measure for `COc1cc(C)c(/C=C/C2CCNCC2)c(C)c1` [Example 54]: 19 µM.
For the molecule `Cc1cc(Br)cc(C)c1/C=C\C1CCNCC1` [Example 56], the half-inhibitory concentration (IC50) worked out at 6.7 µM.
Still for that read-out and setting: the value for `Cc1cccc(C)c1/C=C/[C@H]1CCNC[C@@H]1C` [Example 68, 4-[(E)-2-(2,6-dimethylphenyl)vinyl]-3-methylpiperidine hydrochloride] was 8.7 µM; that for `Cc1cccc(C)c1/C=C/C1CCN(Cc2ccccc2)CC1` [Example 73, 1-benzyl-4-[(E)-2-(2,6-dimethylphenyl)vinyl]piperidine] was 1.9 µM; that for `COCCN1CCC(/C=C/c2c(C)cccc2C)CC1` [Example 75] was 3.5 µM.
With `O=C(CN1CCOCC1)N1CCC(/C=C/c2c(Cl)cccc2Cl)CC1` [Example 98], the concentration for half-maximal inhibition (IC50) is 12 µM.
As to `Cc1cccc(C)c1/C=C/CC1CCN(C(=O)CN2CCOCC2)CC1` [Example 103], the IC50 came to 5 µM.
As to `Cc1cccc(C)c1C=CC1CCN(C(=O)C2COCCN2)CC1` (stereo not drawn) [Example 122], the 50% inhibitory concentration (IC50) came to 9.4 µM.
Same read-out and setting: the value for `Cc1cccc(C)c1/C=C/C1CCN(C(=O)CNC2CCOCC2)CC1` [Example 129, (2-{4-[(E)-2-(2,6-dimethylphenyl)vinyl]piperidin-1-yl}-2-oxoethyl)tetrahydro-2H-pyran-4-ylamine] was 4.2 µM; that for `Cc1cccc(C)c1C=CC1CCN(C(=O)CNCC2CCCO2)CC1` (stereo not drawn) [Example 130] was 3.4 µM; that for `Cc1cccc(C)c1/C=C/C1CCN(C(=O)CN2CC=CC2)CC1` [Example 145] was 6 µM.
`Cc1cccc(C)c1C=CC1CCN(C(=O)CN2CC(C)CC(C)C2)CC1` (stereo not drawn) [Example 153, 1-(2-{4-(E)-2-(2,6-dimethylphenyl)vinyl]piperidin-1-yl}-2-oxoethyl)-3,5-dimethyl piperidine]: the IC50 was 2.4 µM.
As for `Cc1cccc(C)c1/C=C/C1CCN(C(=O)CN2CCC(Cc3ccccc3)CC2)CC1` [Example 165], the IC50 was determined as 2.3 µM.
The same measure, in the same setting: the same measure for `Cc1cccc(C)c1/C=C/C1CCN(C(=O)CN2CCN(C3CCCCC3)CC2)CC1` [Example 176]: 2.5 µM; for `Cc1cccc(C)c1/C=C/C1CCN(C(=O)CN2CCSCC2)CC1` [Example 185]: 6.7 µM; for `Cc1cccc(C)c1C=CC1CCN(C(=O)CN2CCCC3CCCCC32)CC1` (stereo not drawn) [Example 192]: 1.1 µM.
The same measure, in the same setting: the same measure for `Cc1cccc(C)c1/C=C/C1CCN(C(=O)CNCCN)CC1` [Example 198]: 8.5 µM; for `Cc1cccc(C)c1C=CC1CCN(C(=O)CN(C)CC2CCCO2)CC1` (stereo not drawn) [Example 211]: 3 µM.
Still for that read-out and setting: the same measure for `Cc1cccc(C)c1/C=C/C1CCN(C(=O)CN(C)CCN2CCOCC2)CC1` [Example 213]: 3.7 µM.

A further assay has as its system mice with streptozotocin (STZ)-induced diabetic neuropathy. The assay can be described thus: Analgesic action in mice with streptozotocin (STZ)-induced diabetic neuropathy, tail pinch test. It counts as in vivo. The settings on record: male ICR mice, Day 15 after STZ, oral 30 mg/kg, 45 minutes prior to measurement, latency after minus before administration. As for the experimental part:
Representative compounds of Compound (I) of the present invention were assessed for the analgesic action in mice with streptozotocin (STZ)-induced diabetic neuropathy to confirm the effect on neuropathic pain. The assessment was performed by the method of Kamei et al. (Pharmacology Biochemistry & Behavior 39, 541-544, 1991) with some modifications.
Male ICR mice of 4 weeks old were intraperitoneally injected with 200 mg/kg weight of STZ to prepare mice with diabetic neuropathic pain. The analgesic action was assessed by the tail pinch test. […] On Day 14 following the STZ injection, a pretest was carried out to determine the response latency before the administration of a test compound. Only the animals showing not longer than 3 seconds of the response latency in the pretest were used for the test compound assessment on the following day (Day 15 after STZ injection).
In the test compound assessment, the response latency after the administration of a test compound was measured. The test compound was orally administered at a dose of 30 mg/kg, 45 minutes prior to the response latency measurement
The analgesic action of a test compound is expressed as prolongation of latency (in seconds) calculated by the formula: (response latency after administration of a test compound)−(response latency before administration of a test compound).
Consider `Cc1cc(C#N)cc(C)c1/C=C/C1CCNCC1` [Example 49, 3,5-dimethyl-4-[(E)-2-piperidin-4-ylvinyl]benzonitrile], for which the “Anti-STZ-induced pain after oral administration: Latency prolongation” value (“Anti-STZ-induced pain” for short) was 2.2 s.
Take `Cc1cccc(C)c1/C=C/C1CCN(C(=O)c2nc(N)n[nH]2)CC1` [Example 87, 5-({4-[(E)-2-(2,6-dimethylphenyl)vinyl]piperidin-1-yl}carbonyl)-1H-1,2,4-triazol-3-amine]: the “Anti-STZ-induced pain” value is 1.6 s.
In the case of `Cc1cc(Oc2ccccc2)cc(C)c1/C=C/C1CCN(C(=O)CN2CCOCC2)CC1` [Example 99, 4-(2-{4-[(E)-2-(2,6-dimethyl-4-phenoxyphenyl)vinyl]piperidin-1-yl}-2-oxoethyl) morpholine], the “Anti-STZ-induced pain” value was determined as 1.7 s.
Same read-out and setting: the same measure for `Cc1cccc(C)c1/C=C/C1CCCN(C(=O)CN2CCOCC2)C1` (stereo not drawn) [Example 101]: 2.0 s.
With `Cc1cccc(C)c1/C=C/C1CCCCN1C(=O)CN1CCOCC1` (stereo not drawn) [Example 102, 4-(2-{2-[(E)-2-(2,6-dimethylphenyl)vinyl]piperidin-1-yl}-2-oxoethyl)morpholine], the “Anti-STZ-induced pain” value was found to be 2.1 s.
For `Cc1cccc(C)c1/C=C/C1CCN(C(=O)CN2CCN(C(=O)c3cccnc3)CC2)CC1` [Example 105, 1-(2-{4-[(E)-2-(2,6-dimethylphenyl)vinyl]piperidin-1-yl}-2-oxoethyl)-4-(pyridin-3-ylcarbonyl)piperazine], the “Anti-STZ-induced pain” value stood at 1.8 s.
As for `Cc1cccc(C)c1/C=C/C1CCN(C(=O)C(C)(C)N)CC1` [Example 108, (2-{4-[(E)-2-(2,6-dimethylphenyl)vinyl]piperidin-1-yl}-1,1-dimethyl-2-oxoethyl)amine monohydrochloride], the “Anti-STZ-induced pain” value came to 1.8 s.
Same read-out and setting: the same measure for `Cc1cccc(C)c1/C=C/C1CCN(C(=O)C2(N)CCC2)CC1` [Example 110, [1-({4-[(E)-2-(2,6-dimethylphenyl)vinyl]piperidin-1-yl}carbonyl)cyclobutyl]amine]: 2.1 s; for `Cc1cccc(C)c1/C=C/C1CCN(C(=O)[C@@H]2CCCN2)CC1` [Example 114, 4-[(E)-2-(2,6-dimethylphenyl)vinyl]-1-[(2S)-pyrolidin-2-ylcarbonyl]piperidine]: 2.4 s.
On the same count and under the same terms, the value for `Cc1cccc(C)c1/C=C/C1CCN(C(=O)Cn2ccnc2)CC1.Cl` [Example 125, 4-[(E)-2-(2,6-dimethylphenyl)vinyl]-1-(1H-imidazol-1-ylacetyl)piperidine monohydrochloride] was 1.6 s; that for `Cc1cccc(C)c1/C=C/C1CCN(C(=O)CNC2COC2)CC1` [Example 126, N-(2-{4-[(E)-2-(2,6-dimethylphenyl)vinyl]piperidin-1-yl}-2-oxoethyl)oxetane-3-amine] was 1.5 s; that for `CC(=O)NCCNCC(=O)N1CCC(/C=C/c2c(C)cccc2C)CC1` [Example 134, N-{2-[(2-[4-[(E)-2-(2,6-dimethylphenyl)vinyl]piperidin-1-yl]-2-oxoethyl)amino]ethyl}acetamide] was 1.7 s.
As for `Cc1cccc(C)c1/C=C/C1CCN(C(=O)CNCCO)CC1` [Example 135, 2-[(2-{4-[(E)-2-(2,6-dimethylphenyl)vinyl]piperidin-1-yl}-2-oxoethyl)amino]ethanol], the “Anti-STZ-induced pain” value is 2.4 s.
Regarding `Cc1cccc(C)c1/C=C/C1CCN(C(=O)CN2CCCCC2C(N)=O)CC1` (stereo not drawn) [Example 150, 1-(2-{4-[(E)-2-(2,6-dimethylphenyl)vinyl]piperidin-1-yl}-2-oxoethyl)piperidine-2-carboxamide], the “Anti-STZ-induced pain” value turned out to be 1.7 s.
The same measure, in the same setting: the value for `Cc1cccc(C)c1/C=C/C1CCN(C(=O)CN2CCC(N3CCCC3)CC2)CC1` [Example 170, 4-[(E)-2-(2,6-dimethylphenyl)vinyl]-1-[(4-pyrolidin-1-ylpiperidin-1-yl)acetyl]piperidine] was 1.7 s; that for `Cc1cccc(C)c1/C=C/C1CCN(C(=O)CN2CCOCC2)CC1` [Example 179, 4-(2-{4-[(E)-2-(2,6-dimethylphenyl)vinyl]piperidin-1-yl}-2-oxoethyl)morpholine] was 1.8 s.
Still for that read-out and setting: the same measure for `Cc1cccc(C)c1/C=C/C1CCN(C(=O)CN2CCOC(CO)C2)CC1` (stereo not drawn) [Example 180, [4-(2-{4-[(E)-2-(2,6-dimethylphenyl)vinyl]piperidin-1-yl}-2-oxoethyl)morpholine-2-yl]methanol]: 2.3 s.
